Assay results from PMC7503308, “A Novel Urease Inhibitor of Ruminal Microbiota Screened through Molecular Docking” (International Journal of Molecular Sciences, 2020).
Entries after “also recorded” stand apart in the source; their conditions may differ.

Assays:
ruminal microbiota = assay: Ruminal microbial fermentation in vitro (six generations): urea and NH3-N; type: cell-based, rumen fluid of Chinese Holstein dairy cows; conditions: 100 μM compound, 24 h, p < 0.01
Experimental: Seven solutions were prepared for the anaerobic media as solution A (3 g/L K2HPO4), solution B (0.6 g/L CaCl2, 3 g/L K2HPO4, 6 g/L NaCl, 0.6 g/L MgSO4·7H2O), solution C (6 g/L K2HPO4), solution D (1.6 g/L CaCl2·2H2O, 6 g/L K2HPO4, 12 g/L NaCl, 2.5 g/L MgSO4·7H2O), trace element solution (300 mg/L H3BO3, 100 mg/L ZnSO4·7H2O, 30 mg/L MnCl2·4H2O, 20 mg/L CoCl2·6H2O, 30 mg/L Na2MoO4·2H2O, 10 mg/L Na2SeO3, 20 mg/L NiCl2, 10 mg/L CuCl2·2H2O, 150 mg/L FeCl2·4H2O), volatile fatty acid (VFA) mixed solution (17 mL acetic acid, 6 mL propionic acid, 4 mL butyric acid, 1 mL n-valeric acid, 1 mL isovaleric acid, and 1 mL isobutyric acid), and hemin solution, prepared by diluting 50 mg of Haemon in NaOH (1 N solution) and made up to 100 mL with distilled water. Each liter of anaerobic media contained 30 mL of autoclaved rumen fluid supernatant, 0.5 g of glucose, 0.5 g of soluble starch, 0.5 g of cellobiose, 0.5 g of maltose, 0.5 g of […], 0.5 g of tripticase, 0.5 g of yeast extract, 8 g of NaHCO3, 0.1 mL of trace elements solution, 15 mL solution A, 15 mL solution B, 0.5 g of cysteine hydrochloride, 10 mL of hemin solution, 3.1 mL of VFA mixed solution, and 1 mg resazurin. The anaerobic urea solution was prepared using an anaerobic glove box, by dissolving 2.5 g of urea in a 50 mL anaerobic diluent. This diluent consisted of 3.8 mL of salt solution C, 3.8 mL of salt solution D, 5 mL of 8% sodium Na2CO3, 1 mL of 0.1% resazurin, 0.5 g of cysteine hydrochloride dissolved in distilled water and made up to 1000 mL and distributed into 50 mL anaerobic bottles. All the anaerobic bottles were sterilized by autoclave. Prior to the inoculation, fresh frozen rumen fluid samples, pretreated as described previously, were removed from the freezer, thawed, homogenized, and used immediately. […] Chromatographic gradients were referenced to the paper.

ruminal microbial urease = assay: Kinetic characterization of urease inhibition (nonlinear Michaelis-Menten fitting); type: biochemical, rumen bacteria of Chinese Holstein dairy cows
Experimental: Rumen fluid samples were collected from five Chinese Holstein dairy cows with permanent rumen fistula 3 h after feeding a total mixed ration in the morning. All the operations were conducted in accordance with the protocol approved by the Animal Care and Use Committee for Livestock of the Institute of Animal Sciences, Chinese Academy of Agricultural Sciences (Permit Number: IAS2019-14, Permit Date: 22-03-2019). All rumen fluid samples were filtered by a six layer sterilized medical gauze and mixed in a sterilized beaker before being evenly distributed into different 50 mL tubes and stored in liquid nitrogen. The deforested samples were centrifuged at 12,000× g for 10 min at 4 °C, then the supernatant was removed from the tube. The remaining sediments were resuspended in a HEPES buffer solution (pH 7.5, 50 mM) and then centrifuged at 12,000× g for 10 min at 4 °C. The supernatant was discarded and the remaining rumen bacteria were collected and stored at −80 °C for later urease extraction. All the sample handing processes were conducted on an ice bath. Before each urease inhibition assay, 2 g of rumen bacteria were taken from the fridge and resuspended in a HEPES buffer followed by lysis through a high-pressure cell press JG-1A (Ningbo Scientz Biotechnology Co., Ltd., Ningbo, China). The hollow cylindrical sample loading element was placed in −80 °C for 10 min before the high-pressure lysis at 22,000 psi. […] The kinetic of the compound was determined by varying the concentration of urea in the presence of different compound 6238-0047 concentrations of 0.25 and 0.5 mM in the assay mixture. […] Maximal initial velocities were determined from the initial linear portion of the absorbance up to 10 min after the addition of the enzyme. Kinetic parameters Km and Vmax were calculated by the nonlinear fitting of different substrate concentrations against the velocities of the reaction at each different concentrations of compound 6238-0047 using the GraphPad Prism software as mentioned before.

Caco-2 cells = assay: CCK8 colorimetric cytotoxicity assay; type: cell-based; conditions: concentration below 100 μM, 24 h, p > 0.05
Experimental: A standard CCK8 colorimetric assay was employed for the evaluation of cytotoxic activity of compound 6238-0047 using 96-well flat bottomed microplates. Dulbecco’s Modified Eagle Medium (GIBCO) with 10% FBS (fetal bovine serum, FBS, Gibco) and 1% NEAA was used for the culturing of Caco-2 cells (ATCC, Manassas, VA, USA), and the medium was supplemented with 100 μg/mL of streptomycin and 100 IU/mL of penicillin. The medium was kept in 5% CO2 and incubated at 37 °C. The exponentially grown cells were harvested, counted using a hemocytometer and diluted with the medium. The cell culture was diluted to a density of 1 × 10^5 cells/mL and transferred into a 96-well plate with 135 μL or […]. The medium was incubated for 24 h for cell attachment. Following this, 15 μL of compounds with different final concentrations of 1, 10, 25, 50, and 100 μM in the experimental group and fresh medium as a control group, were added to a plate with five replicates for each. After 24 h of incubation at 37 °C and kept in 5% CO2, 15 μL of CCK8 was added to each well and after 2 h the absorbance was measured at 450 nm using a microplate reader. The formula for calculating the relative cell viability was as follows:Relative cell viability (%) = absorbance of experimental group/absorbance of control group × 100%

Structure (SMILES): COc1ccc(-c2ccc(CCC(=O)O)n2NC(N)=O)cc1 [6238-0047, 3-[1-[(aminocarbonyl)amino]-5-(4-methoxyphenyl)-1H-pyrrol-2-yl] propanoic acid]
- Amount of urea degradation vs control group (ruminal microbiota; 16.65 mM urea): significantly lowered the amount of urea degradation
- NH3-N concentration / production vs control group (ruminal microbiota): significantly lower than the control group; also recorded: consistently lower than the control group
- Vmax (ruminal microbial urease; 0.25 mM of compound): 12.58 µM/min
- Vmax (ruminal microbial urease; 0.5 mM of compound): 9.67 µM/min
- Inhibition mode (ruminal microbial urease; from change of Km, Vmax and Vmax/Km): mixed type inhibitor
- Relative cell viability of Caco-2 cell culture (Caco-2 cells): no significant adverse effect; also recorded: no significant influence; also recorded: no cytotoxic effect
